Test results: patent US4322346A, “5H-2,3-Benzodiazepine derivatives” (priority 1978, dated 1982)
“Also recorded” adds a separate entry of the source.

Assays:
Assay type in all cases: in vivo
[1] = tested on: mice; assay: General behaviour of mice; settings: 100 mg/kg i.p. and, resp., 200 mg/kg p.o., SMA = spontaneous motor activity
Method: These compounds decrease the spontaneous motor activity and potentiate the effect of narcotics.
(§1) The tests were performed on mice. In the examination of the general behaviour the animals were treated intraperitoneally with 100 mg/kg or orally with 200 mg/kg of the compound in question. The fighting behaviour test was performed according to the method of Tedeschi et al. (J. Pharm. Exp. Ther. 25, 28 /1959/). The observations concerning the general behaviour of the animals and the ED50 values obtained in the fighting behaviour test are summarized in Table 1. In these tests 1-(3,4-dimethoxyphenyl)-4-methyl-5-ethyl-7,8-dimethoxy-5H-2,3-benzodiazepine (Grandaxin) was applied as reference substance.

[2] = tested on: mice; assay: Fighting behaviour test on mice (method of Tedeschi et al.); settings: for ED50: Mus musculus, po, mice; for "Fighting behaviour" test on mice, relative activity: relative to Grandaxin (1.0), from ED50 p.o.
Method: as §1

[3] = tested on: mice; assay: Narcosis potentiating activity on mice (sodium hexobarbital narcosis); settings: for Narcosis potentiating activity on mice, Relative activity: relative to Grandaxin (1.0); for change in vivo at 50 mg/kg / change in vivo at 25 mg/kg / change in vivo at 12.5 mg/kg / change in vivo at 100 mg/kg: Mus musculus, po, 30 minutes before 50 mg/kg sodium hexobarbital i.v., prolongation vs control, read-out: Narcosis potentiating activity on mice, Increase, %
Method: When studying the narcosis potentiating effect, the benzodiazepine compounds were administered to mice in oral dosages of 12.5, 25, 50 or 100 mg/kg, and 30 minutes later 50 mg/kg of sodium hexobarbital were injected intravenously into the animals. The percentage prolongation of the narcosis period, compared to the value observed in the control group treated with sodium hexobarbital alone, was calculated. In these tests Grandaxin was applied again as reference substance.

| SMILES | General behaviour [1] | ED50 [2] | "Fighting behaviour" test on mice, relative activity [2] | Narcosis potentiating activity on mice, Relative activity ([3]; 50 mg/kg p.o.) | change in vivo at 50 mg/kg ([3]; 50 mg/kg p.o.) | Narcosis potentiating activity on mice, Relative activity ([3]; 25 mg/kg p.o.) | change in vivo at 25 mg/kg ([3]; 25 mg/kg p.o.) | Narcosis potentiating activity on mice, Relative activity ([3]; 12.5 mg/kg p.o.) | change in vivo at 12.5 mg/kg ([3]; 12.5 mg/kg p.o.) | Narcosis potentiating activity on mice, Relative activity ([3]; 100 mg/kg p.o.) | change in vivo at 100 mg/kg ([3]; 100 mg/kg p.o.) |
| --- | --- | --- | --- | --- | --- | --- | --- | --- | --- | --- | --- |
| CCC1C(C)=NN=C(c2ccc(OC)cc2)c2cc(OC)c(OC)cc21 (centres unmarked) [Example 4, 1-(4-methoxyphenyl)-4-methyl-5-ethyl-7,8-dimethoxy-5H-2,3-benzodiazepine] | Decrease of SMA | 40 mg/kg | 1.6 | 2.17 | 248% |  |  |  |  |  |  |
| CCC1C(C)=NN=C(c2ccccc2C)c2cc(OC)c(OC)cc21 (centres unmarked) [Example 7, 1-(2-tolyl)-4-methyl-5-ethyl-7,8-dimethoxy-5H-2,3-benzodiazepine] |  |  |  |  |  | 3.71 | 301% |  |  |  |  |
| CCCC1C(C)=NN=C(c2ccc(OC)c(OC)c2)c2cc(OC)c(OC)cc21.O (centres unmarked) [Example 10, 1-(3,4-dimethoxyphenyl)-4-methyl-5-n-propyl-7,8-dimethoxy-5H-2,3-benzodiazepine hydrate] |  |  |  | 1.62 | 185% | 1.23 | 100% |  |  |  |  |
| CCC1=NN=C(c2ccc(OC)c(OC)c2)c2cc(OC)c(OC)cc2C1CC (centres unmarked) [Example 11, 1-(3,4-dimethoxyphenyl)-4,5-diethyl-7,8-dimethoxy-5H-2,3-benzodiazepine] |  |  |  | 1.43 | 163% | 1.65 | 134% |  |  |  |  |
| CCC1C(C)=NN=C(c2ccccc2F)c2cc(OC)c(OC)cc21 (centres unmarked) [Example 14, 1-(2-fluorophenyl)-4-methyl-5-ethyl-7,8 dimethoxy-5H-2,3-benzodiazepine] |  |  |  | 6.57 | 750% | 3.16 | 256% | 8.65 | 147% |  |  |
| CCC1C(C)=NN=C(c2ccccc2Cl)c2cc(OC)c(OC)cc21 (centres unmarked) [Example 18, 1-(2-chlorophenyl)-4-methyl-5-ethyl-7,8-dimethoxy-5H-2,3-benzodiazepine] | Strong decrease of SMA | 40 mg/kg | 1.6 | 13.33 |  | 4.65 | 377% | 9.41 | 160% |  |  |
| CCC1C(C)=NN=C(c2ccccc2)c2cc(OC)c(OC)cc21 (centres unmarked) [Example 22, 1-phenyl-4-methyl-5-ethyl-7,8-dimethoxy-5H-2,3-benzodiazepine] | Decrease of SMA; also recorded: catalepsy | 35 mg/kg | 1.8 | 3.20 | 364% | 2.23 | 181% |  |  |  |  |
| CCC1C(C)=NN=C(c2ccc(O)c(OC)c2)c2cc(OC)c(OC)cc21 (centres unmarked) [Example 24, 1-(3-methoxy-4-hydroxyphenyl)-4-methyl-5-ethyl-7,8-dimethoxy-5H-2,3-benzodiazepine] |  |  |  | 1.16 | 132% |  |  |  |  |  |  |
| CCC1C(C)=NN=C(c2ccc(OC)c(OC)c2)c2cc(OC)c(OC(C)C)cc21 (centres unmarked) [Example 33, 1-(3,4-dimethoxyphenyl)-4-methyl-5-ethyl-7-isopropoxy-8-methoxy-5H-2,3-benzodiazepine] |  |  |  | 3.90 | 445% | 3.01 | 244% |  |  |  |  |
| CCC(C)Oc1cc2c(cc1OC)C(c1ccc(OC)c(OC)c1)=NN=C(C)C2CC (centres unmarked) [Example 35, 1-(3,4-dimethoxyphenyl)-4-methyl-5-ethyl-7-sec.butoxy-8-methoxy-5H-2,3-benzodiazepine] | Decrease of SMA | 60 mg/kg | 1.1 | 1.52 | 173% | 1.11 | 90% |  |  | 3.26 | 780% |
| CCOc1cc2c(cc1OC)C(c1ccc(OC)c(OC)c1)=NN=C(C)C2CC (centres unmarked) [Example 36, 1-(3,4-dimethoxyphenyl)-4-methyl-5-ethyl-7-ethoxy-8-methoxy-5H-2,3-benzodiazepine] |  |  |  | 2.44 | 278% | 1.62 | 132% |  |  |  |  |
| CCCOc1cc2c(cc1OC)C(c1ccc(OC)c(OC)c1)=NN=C(C)C2CC (centres unmarked) [Example 37, 1-(3,4-dimethoxyphenyl)-4-methyl-5-ethyl-7-n-propoxy-8-methoxy-5H-2,3-benzodiazepine] | Strong decrease of SMA | 40 mg/kg | 1.6 |  |  |  |  |  |  |  |  |
| COc1cc2c(cc1OC)C(c1cccc(Cl)c1)=NN=C(C)C2 [Example 39, 1-(3-Chlorophenyl)-4-methyl-7,8-dimethoxy-5H-2,3-benzodiazepine] | Strong decrease of SMA | 16 mg/kg | 4.0 |  |  | 4.25 | 344% | 7.94 | 135% |  |  |
| COc1cc2c(cc1OC)C(C)C(C)=NN=C2c1cccc(Cl)c1 (centres unmarked) [Example 40, 1-(3-Chlorophenyl)-4,5-dimethyl-7,8-dimethoxy-5H-2,3-benzodiazepine] | Decrease of SMA | 50 mg/kg | 1.3 | 0.79 | 90% |  |  |  |  | 0.91 | 218% |
| COc1cc2c(cc1OC)C(c1cccc(F)c1)=NN=C(C)C2 [Example 41, 1-(3-Fluorphenyl)-4-methyl-7,8-dimethoxy-5H-2,3-benzodiazepine] | Decrease of SMA | 37 mg/kg | 1.7 | 1.80 | 205% |  |  |  |  | 1.60 | 383% |
| CCC1C(C)=NN=C(c2cccc(F)c2)c2cc(OC)c(OC)cc21 (centres unmarked) [Example 42, 1-(3-Fluorphenyl)-4-methyl-5-ethyl-7,8-dimethoxy-5H-2,3-benzodiazepine] | Decrease of SMA | 40 mg/kg | 1.6 | 3.04 | 347% | 2.52 | 204% |  |  |  |  |
| COc1cc2c(cc1OC)C(c1ccccc1OC)=NN=C(C)C2 [Example 43, 1-(2-Methoxyphenyl)-4-methyl-7,8-dimethoxy-5H-2,3-benzodiazepine] | Decrease of SMA | 36 mg/kg | 1.8 |  |  | 2.89 | 234% |  |  |  |  |
| COc1cc2c(cc1OC)C(c1cccc(C(F)(F)F)c1)=NN=C(C)C2 [Example 44, 1-(3-Trifluoromethyl-phenyl)-4-methyl-7,8-dimethoxy-5H-2,3-benzodiazepine] | Strong decrease of SMA | 22 mg/kg | 2.9 |  |  | 3.63 | 294% | 8.82 | 150% |  |  |
| COc1cc2c(cc1OC)C(c1ccco1)=NN=C(C)C2 [Example 45, 1-(2-Furyl)-4-methyl-7,8-dimethoxy-5H-2,3-benzodiazepine] | Decrease of SMA | 50 mg/kg | 1.3 |  |  | 3.09 | 250% |  |  |  |  |
| COc1cccc(C2=NN=C(C)Cc3cc(OC)c(OC)cc32)c1 [Example 46, 1-(3-Methoxyphenyl)-4-methyl-7,8-dimethoxy-5H-2,3-benzodiazepine] | Strong decrease of SMA | 50 mg/kg | 1.3 |  |  | 3.70 | 300% | 8.24 | 140% |  |  |
